Experimental data: patent US11377442B2, “Small molecule agonists and antagonists of NR2F6 activity” (ZANDER THERAPEUTICS, INC., priority 2016, dated 2022)
Blank lines part the entries; values can stand above or below the molecule they belong to.

Target: T1, NR2F6 (Homo sapiens, UniProt P10588)
T1 construct: expressed in transfected cells; also transient transfection
T1 sequence (P10588 1-404): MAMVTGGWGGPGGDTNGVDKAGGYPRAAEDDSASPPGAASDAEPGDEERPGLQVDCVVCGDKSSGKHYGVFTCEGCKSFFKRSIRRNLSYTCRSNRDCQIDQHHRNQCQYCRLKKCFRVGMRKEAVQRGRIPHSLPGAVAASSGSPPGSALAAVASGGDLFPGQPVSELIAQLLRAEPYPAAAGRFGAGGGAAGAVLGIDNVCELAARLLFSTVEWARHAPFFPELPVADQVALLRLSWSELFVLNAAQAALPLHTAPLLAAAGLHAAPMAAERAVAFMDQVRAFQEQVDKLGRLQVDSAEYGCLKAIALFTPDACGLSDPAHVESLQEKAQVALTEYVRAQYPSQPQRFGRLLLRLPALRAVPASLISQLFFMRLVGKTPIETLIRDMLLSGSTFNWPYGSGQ
Experiment: NR2F6 agonist screening, Firefly signal cmpd/DMSO
Assay type: cell-based
Parameters: Firefly NR2F6 full length, cmpd/DMSO (mean) / Firefly F4, cmpd/DMSO (mean): unit of the concentration uncertain
Conditions: for Firefly/Renilla (NR2F6 stable, clone F4): ratio Firefly/Renilla; for Firefly, NR2F6 stable (clone F4)/pGL4: ratio of Firefly in NR2F6 stable clone F4 to pGL4; for Firefly, cmpd/DMSO (mean): mean of repeats; for Firefly, cmpd repeat 1 / Firefly, cmpd repeat 2: raw signal

[1] = C11 analogs follow set (Tables 2-10)
[2] = Concentration 2 (unit uncertain)
[3] = Concentration 10 (unit uncertain)
[4] = Concentration 40 (unit uncertain)

- Firefly, cmpd/DMSO (mean): 12.8
- Firefly, cmpd repeat 1: 784
- Firefly, cmpd repeat 2: 644
- Firefly, cmpd/DMSO repeat 1: 14.1
- Firefly, cmpd/DMSO repeat 2: 11.7
SMILES: CCOC(=O)c1cnc2c(C)cc(C)cc2c1NCCCN(C)C [Compound D28]

- Firefly F4, cmpd/DMSO (mean) [2]: 0.9
- Firefly NR2F6 full length, cmpd/DMSO (mean) [2]: 1.1
- Firefly F4, cmpd/DMSO (mean) [3]: 0.9
- Firefly NR2F6 full length, cmpd/DMSO (mean) [3]: 1.0
- Firefly F4, cmpd/DMSO (mean) [4]: 0.8
- Firefly NR2F6 full length, cmpd/DMSO (mean) [4]: 1.0
SMILES: COc1ccc(OC)c(S(=O)(=O)NCc2nc3nc(C)cc(C)n3n2)c1 [Compound E4]

- Firefly F4, cmpd/DMSO (mean) [2]: 1.0
- Firefly NR2F6 full length, cmpd/DMSO (mean) [2]: 1.2
- Firefly F4, cmpd/DMSO (mean) [3]: 1.0
- Firefly NR2F6 full length, cmpd/DMSO (mean) [3]: 1.2
- Firefly F4, cmpd/DMSO (mean) [4]: 0.7
- Firefly NR2F6 full length, cmpd/DMSO (mean) [4]: 0.9
SMILES: COc1ccc(S(=O)(=O)NCc2nc3nc(C)cc(C)n3n2)cc1OC [Compound E8]

- Firefly F4, cmpd/DMSO (mean) [2]: 1.1
- Firefly NR2F6 full length, cmpd/DMSO (mean) [2]: 1.3
- Firefly F4, cmpd/DMSO (mean) [3]: 1.0
- Firefly NR2F6 full length, cmpd/DMSO (mean) [3]: 1.5
- Firefly F4, cmpd/DMSO (mean) [4]: 0.8
- Firefly NR2F6 full length, cmpd/DMSO (mean) [4]: 1.1
SMILES: Cc1cc(C)c(S(=O)(=O)NCc2nc3nc(C)cc(C)n3n2)c(C)c1 [Compound E10]

- Firefly F4, cmpd/DMSO (mean) [2]: 1.3
- Firefly NR2F6 full length, cmpd/DMSO (mean) [2]: 1.2
- Firefly F4, cmpd/DMSO (mean) [3]: 1.1
- Firefly NR2F6 full length, cmpd/DMSO (mean) [3]: 0.8
- Firefly F4, cmpd/DMSO (mean) [4]: 0.8
- Firefly NR2F6 full length, cmpd/DMSO (mean) [4]: 1.1
SMILES: COc1ccc(Cl)cc1S(=O)(=O)NCc1nc2nc(C)cc(C)n2n1 [Compound E15]

- Firefly, cmpd/DMSO (mean): 7.3
- Firefly, cmpd repeat 1: 526
- Firefly, cmpd repeat 2: 306
- Firefly, cmpd/DMSO repeat 1: 9.5
- Firefly, cmpd/DMSO repeat 2: 5.6
- activity (in words) (screening result): desirable activity
SMILES: Cc1cc(C)n2nc(CNS(=O)(=O)c3c(F)c(F)c(F)c(F)c3F)nc2n1 [Compound E21]

- Firefly F4, cmpd/DMSO (mean) [2]: 1.0
- Firefly NR2F6 full length, cmpd/DMSO (mean) [2]: 1.0
- Firefly F4, cmpd/DMSO (mean) [3]: 0.9
- Firefly NR2F6 full length, cmpd/DMSO (mean) [3]: 1.1
- Firefly F4, cmpd/DMSO (mean) [4]: 0.7
- Firefly NR2F6 full length, cmpd/DMSO (mean) [4]: 1.1
SMILES: Cc1ccc(S(=O)(=O)NCc2cn3ccccc3n2)c(C)c1 [Compound E24]

- Firefly F4, cmpd/DMSO (mean) [2]: 0.9
- Firefly NR2F6 full length, cmpd/DMSO (mean) [2]: 1.1
- Firefly F4, cmpd/DMSO (mean) [3]: 0.7
- Firefly NR2F6 full length, cmpd/DMSO (mean) [3]: 1.0
- Firefly F4, cmpd/DMSO (mean) [4]: 0.4
- Firefly NR2F6 full length, cmpd/DMSO (mean) [4]: 0.9
SMILES: Cc1ccc(S(=O)(=O)NCc2cn3cccc(C)c3n2)cc1C [Compound E41]

- Firefly F4, cmpd/DMSO (mean) [2]: 0.7
- Firefly NR2F6 full length, cmpd/DMSO (mean) [2]: 1.0
- Firefly F4, cmpd/DMSO (mean) [3]: 0.9
- Firefly NR2F6 full length, cmpd/DMSO (mean) [3]: 1.3
- Firefly F4, cmpd/DMSO (mean) [4]: 0.7
- Firefly NR2F6 full length, cmpd/DMSO (mean) [4]: 1.4
SMILES: Cc1cccn2cc(CNS(=O)(=O)c3ccccc3F)nc12 [Compound E52]

- Firefly F4, cmpd/DMSO (mean) [2]: 1.0
- Firefly NR2F6 full length, cmpd/DMSO (mean) [2]: 1.3
- Firefly F4, cmpd/DMSO (mean) [3]: 1.3
- Firefly NR2F6 full length, cmpd/DMSO (mean) [3]: 1.2
- Firefly F4, cmpd/DMSO (mean) [4]: 1.3
- Firefly NR2F6 full length, cmpd/DMSO (mean) [4]: 0.9
SMILES: Cc1ccc(S(=O)(=O)N(Cc2nc3nc(C)c(S)c(C)n3n2)c2ccccc2)cc1 [Compound E57]

- Firefly, cmpd/DMSO (mean): 5.1
- Firefly, cmpd repeat 1: 310
- Firefly, cmpd repeat 2: 252
- Firefly, cmpd/DMSO repeat 1: 5.6
- Firefly, cmpd/DMSO repeat 2: 4.6
SMILES: Cc1cc(C)nc(Sc2nnc(-c3ccc(C)c(S(=O)(=O)N4CCOCC4)c3)c3ccccc23)n1 [Compound F1]

Further lines, the molecule ahead of its results:

SMILES: COc1ccc2cc(S(=O)(=O)c3ccc(Cl)c(Cl)c3)c(=O)oc2c1 [Compound C272]
- Firefly, cmpd/DMSO repeat 1 [1]: 4.5
- Firefly, cmpd/DMSO repeat 2 [1]: 3.1

SMILES: O=c1oc2cc(O)ccc2cc1S(=O)(=O)c1ccccc1 [Compound C273]
- Firefly, cmpd/DMSO repeat 1 [1]: 2.0
- Firefly, cmpd/DMSO repeat 2 [1]: 1.5

SMILES: COc1ccc2cc(S(=O)(=O)c3ccc(OC)c(OC)c3)c(=O)oc2c1 [Compound C274]
- Firefly, cmpd/DMSO repeat 1 [1]: 3.3
- Firefly, cmpd/DMSO repeat 2 [1]: 3.5

SMILES: COc1ccc2cc(S(=O)(=O)c3ccc(F)c(Cl)c3)c(=O)oc2c1 [Compound C275]
- Firefly, cmpd/DMSO repeat 1 [1]: 2.6
- Firefly, cmpd/DMSO repeat 2 [1]: 2.5

SMILES: O=c1oc2cc(O)ccc2cc1S(=O)(=O)c1ccc(F)c(Cl)c1 [Compound C276]
- Firefly, cmpd/DMSO repeat 1 [1]: 1.2
- Firefly, cmpd/DMSO repeat 2 [1]: 1.3

SMILES: CCN(CC)c1ccc2cc(S(=O)(=O)c3ccc(C)cc3)c(=O)oc2c1 [Compound C277]
- Firefly, cmpd/DMSO repeat 1 [1]: 3.4
- Firefly, cmpd/DMSO repeat 2 [1]: 2.9

SMILES: CCN(CC)c1ccc2cc(S(=O)(=O)c3ccc(Br)cc3)c(=O)oc2c1 [Compound C278]
- Firefly, cmpd/DMSO repeat 1 [1]: 2.4
- Firefly, cmpd/DMSO repeat 2 [1]: 3.0

SMILES: CCN(CC)c1ccc2cc(S(=O)(=O)c3ccc(Cl)cc3)c(=O)oc2c1 [Compound C279]
- Firefly, cmpd/DMSO repeat 1 [1]: 3.9
- Firefly, cmpd/DMSO repeat 2 [1]: 2.1

SMILES: COc1ccc2cc(S(=O)(=O)c3ccccc3F)c(=O)oc2c1 [Compound C280]
- Firefly, cmpd/DMSO repeat 1 [1]: 0.6
- Firefly, cmpd/DMSO repeat 2 [1]: 0.6

SMILES: COc1ccc2cc(S(=O)(=O)c3cccc(Cl)c3)c(=O)oc2c1 [Compound C281]
- Firefly, cmpd/DMSO repeat 1 [1]: 3.0
- Firefly, cmpd/DMSO repeat 2 [1]: 4.4

SMILES: COc1ccc2cc(S(=O)(=O)c3ccc(F)c(C)c3)c(=O)oc2c1 [Compound C282]
- Firefly, cmpd/DMSO repeat 1 [1]: 0.7
- Firefly, cmpd/DMSO repeat 2 [1]: 1.1

SMILES: COc1ccc(S(=O)(=O)c2cc3cc(Br)cc(Br)c3oc2=O)cc1 [Compound C283]
- Firefly, cmpd/DMSO repeat 1 (Table 11): 1.0
- Firefly, cmpd/DMSO repeat 2 (Table 11): 1.3

SMILES: CC(C)c1ccc(S(=O)(=O)c2cc3cc(Br)cc(Br)c3oc2=O)cc1 [Compound C284]
- Firefly, cmpd/DMSO repeat 1 (Table 11): 2.9
- Firefly, cmpd/DMSO repeat 2 (Table 11): 2.5

SMILES: Cc1ccc(S(=O)(=O)c2cc3cc(Br)cc(Br)c3oc2=O)cc1C [Compound C285]
- Firefly, cmpd/DMSO repeat 1 (Table 11): 1.0
- Firefly, cmpd/DMSO repeat 2 (Table 11): 1.0

SMILES: O=c1oc2c(Br)cc(Br)cc2cc1S(=O)(=O)c1ccc(Cl)cc1 [Compound C286]
- Firefly, cmpd/DMSO repeat 1 (Table 11): 2.3
- Firefly, cmpd/DMSO repeat 2 (Table 11): 2.4

SMILES: O=c1oc2c(Br)cc(Br)cc2cc1S(=O)(=O)c1ccc(Cl)c(Cl)c1 [Compound C287]
- Firefly, cmpd/DMSO repeat 1 (Table 11): 3.0
- Firefly, cmpd/DMSO repeat 2 (Table 11): 2.6

SMILES: O=c1oc2c(F)cc(F)cc2cc1S(=O)(=O)c1ccccc1 [Compound C288]
- Firefly, cmpd/DMSO repeat 1 (Table 11): 6.8
- Firefly, cmpd/DMSO repeat 2 (Table 11): 3.3

SMILES: COc1ccc(S(=O)(=O)c2cc3cc(F)cc(F)c3oc2=O)cc1 [Compound C289]
- Firefly, cmpd/DMSO repeat 1 (Table 11): 31.3
- Firefly, cmpd/DMSO repeat 2 (Table 11): 15.6
- Firefly/Renilla (NR2F6 stable, clone F4) (Table 12): 2.0
- Firefly, NR2F6 stable (clone F4)/pGL4 (Table 12): 15.3
- Firefly, cmpd/DMSO repeat 1 (Table 12): 31.3
- Firefly, cmpd/DMSO repeat 2 (Table 12): 15.6

SMILES: O=c1oc2c(F)cc(F)cc2cc1S(=O)(=O)c1ccc(Br)cc1 [Compound C290]
- Firefly, cmpd/DMSO repeat 1 (Table 11): 13.8
- Firefly, cmpd/DMSO repeat 2 (Table 11): 14.6

SMILES: CC(C)(C)c1ccc(S(=O)(=O)c2cc3cc(F)cc(F)c3oc2=O)cc1 [Compound C291]
- Firefly, cmpd/DMSO repeat 1 (Table 11): 0.9
- Firefly, cmpd/DMSO repeat 2 (Table 11): 0.8

SMILES: Cc1cc(S(=O)(=O)c2cc3cc(F)cc(F)c3oc2=O)ccc1F [Compound C292]
- Firefly, cmpd/DMSO repeat 1 (Table 11): 18.3
- Firefly, cmpd/DMSO repeat 2 (Table 11): 14.8
- Firefly/Renilla (NR2F6 stable, clone F4) (Table 13): 1.1
- Firefly, NR2F6 stable (clone F4)/pGL4 (Table 13): 9.7
- Firefly, cmpd/DMSO repeat 1 (Table 13): 18.3
- Firefly, cmpd/DMSO repeat 2 (Table 13): 14.8

SMILES: O=c1oc2c(F)cc(F)cc2cc1S(=O)(=O)c1ccc(Cl)cc1 [Compound C293]
- Firefly, cmpd/DMSO repeat 1 (Table 11): 8.5
- Firefly, cmpd/DMSO repeat 2 (Table 11): 11.9

SMILES: COc1cc(Br)cc2cc(S(=O)(=O)c3ccccc3)c(=O)oc12 [Compound C294]
- Firefly, cmpd/DMSO repeat 1 (Table 11): 16.5
- Firefly, cmpd/DMSO repeat 2 (Table 11): 16.5

SMILES: COc1cc(Br)cc2cc(S(=O)(=O)c3ccc(F)cc3)c(=O)oc12 [Compound C295]
- Firefly, cmpd/DMSO repeat 1 (Table 11): 4.0
- Firefly, cmpd/DMSO repeat 2 (Table 11): 4.6

SMILES: COc1ccc(S(=O)(=O)c2cc3cc(Br)cc(OC)c3oc2=O)cc1 [Compound C296]
- Firefly, cmpd/DMSO repeat 1 (Table 11): 6.0
- Firefly, cmpd/DMSO repeat 2 (Table 11): 7.8

SMILES: COc1cc(Br)cc2cc(S(=O)(=O)c3ccc(C(C)(C)C)cc3)c(=O)oc12 [Compound C297]
- Firefly, cmpd/DMSO repeat 1 (Table 11): 1.5
- Firefly, cmpd/DMSO repeat 2 (Table 11): 2.6

SMILES: COc1cc(Br)cc2cc(S(=O)(=O)c3ccc(F)c(C)c3)c(=O)oc12 [Compound C298]
- Firefly, cmpd/DMSO repeat 1 (Table 11): 2.2
- Firefly, cmpd/DMSO repeat 2 (Table 11): 3.2

SMILES: Cc1ccc2oc(=O)c(S(=O)(=O)c3cccc(C#N)c3)cc2c1 [Compound C299]
- Firefly/Renilla (NR2F6 stable, clone F4) (Table 12): 4.0
- Firefly, NR2F6 stable (clone F4)/pGL4 (Table 12): 10.1
- Firefly, cmpd/DMSO repeat 1 (Table 12): 21.5
- Firefly, cmpd/DMSO repeat 2 (Table 12): 15.2

SMILES: Cc1ccc2oc(=O)c(S(=O)(=O)c3cccc(Cl)c3)cc2c1 [Compound C300]
- Firefly/Renilla (NR2F6 stable, clone F4) (Table 13): 1.6
- Firefly, NR2F6 stable (clone F4)/pGL4 (Table 13): 4.3
- Firefly, cmpd/DMSO repeat 1 (Table 13): 9.8
- Firefly, cmpd/DMSO repeat 2 (Table 13): 7.4
